Converted amounts (≈) assume the structure as drawn. Read-outs that look alike come from different tables or passages of the source.
Tests used:
[1] = Chemical and physical stability testing of Form N-1; assay type: physicochemical; conditions: several different temperature and humidity conditions
[2] = Aqueous solubility of crystalline forms of Compound (I); assay type: physicochemical
From the text: However, in the presence of an aqueous medium, the neat crystalline Form N-1 can convert to the crystalline sesquihydrate Form H1.5-2. […] One method to increase the bioavailability of compounds in a suspension is to increase the surface area of the particles in contact with the aqueous medium, which can be achieved by decreasing the particle size. However, reductions in particle size below diameters of approximately one micron requires specialized milling and dispersion techniques to prepare, stabilize, and sterilize the sub-micron suspensions. Desired is an aqueous suspension of Compound (I) in Form N-1 that has sufficient resistance to conversion to the sesquihydrate Form H1.5-2 to allow oral administration.

[3] = Pharmacokinetics of capsules of Form N-1 with two particle sizes; design: species or system dogs; conditions: dog, in vivo, 10 mg/kg, 10 mpk; for bioavailability: oral, compared to IV data, read-out: Absolute Bioavailability; for AUC / Cmax / Tmax: po
Protocol: The microsuspension of Example 7, tablets, and hard gelatin capsules containing the phosphate salt of Compound (I) were dosed orally at 10 mg/kg in dogs pretreated with pentagastrin. The resulting exposures were compared to an absolute bioavailability calculated by comparison to an IV dose in the same animals. Capsules were prepared comprising Compound (I), Form N-1 with two different particle sizes.

[4] = Chemical stability of tablets after accelerated storage; assay type: physicochemical; conditions: control
Protocol: The chemical stability of the 25 mg tablet of Example 9 was evaluated after accelerated storage at various temperatures and humidity conditions for periods up to one month.

[5] = Particle Diameter D90 10 micron
[6] = Particle Diameter D90 70 micron

CCOc1ccn(-c2ccc(F)cc2)c(=O)c1C(=O)Nc1ccc(Oc2ccnc(N)c2Cl)c(F)c1 [Form N-1, N-(4-(2-Amino-3-chloropyridin-4-yloxy)-3-fluorophenyl)-4-ethoxy-1-(4-fluorophenyl)-2-oxo-1,2-dihydropyridine-3-carboxamide]
chemical and physical stability [1]: suitable chemical and physical stability | solubility ([2]; aqueous medium, aqueous buffer, pH 7.4 and room temperature): ~0.25 µg/mL (≈ 0.487 µM) | bioavailability [3, 5]: ~32% | bioavailability [3, 6]: 12% | AUC [3, 5]: 90.2 ± 5.5 µM·h | Cmax [3, 5]: 15 ± 2.7 µM | Tmax [3, 5]: 6 h | AUC [3, 6]: 33.3 ± 8.4 µM·h | Cmax [3, 6]: 6.9 ± 1.1 µM | Tmax [3, 6]: 2 h

CCOc1ccn(-c2ccc(F)cc2)c(=O)c1C(=O)Nc1ccc(Oc2ccnc(N)c2Cl)c(F)c1 [Compound (I), N-(4-(2-Amino-3-chloropyridin-4-yloxy)-3-fluorophenyl)-4-ethoxy-1-(4-fluorophenyl)-2-oxo-1,2-dihydropyridine-3-carboxamide]
Total Impurity [4]: 0.13%

CCOc1ccn(-c2ccc(F)cc2)c(=O)c1C(=O)Nc1ccc(Oc2ccnc(N)c2Cl)c(F)c1 [Form H1.5-2, N-(4-(2-Amino-3-chloropyridin-4-yloxy)-3-fluorophenyl)-4-ethoxy-1-(4-fluorophenyl)-2-oxo-1,2-dihydropyridine-3-carboxamide]
aqueous solubility compared to Form N-1 [2]: lower aqueous solubility compared to Form N-1
